# What was measured:
# [1] = test system: SEM cells; assay: cell viability relative to DMSO control; higher = less cytotoxic; conditions: 48 h
# How it was run: (§1)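 Leukemia cells (NOMO1 or SEM, 500 cells/well; P12-Ichikawa, 1000 cells/well) were seeded in 5 μl in 1536-well plates after at least four passages of adaptation to each medium. They received library compounds in DMSO by pin dosing, 11 threefold points from 47 μM to 0.79 nM. Luminescence with CellTiter-Glo One was read after 48 h at 37°C. Viability is stated per plate relative to DMSO wells, with cell-free wells as background.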
# [2] = test system: SEM cells; assay: AUC of viability dose-response curve (% viability x log10 dose units); higher = less sensitive; conditions: 48 h
# How it was run: (§2)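 Leukemia cells adapted to each medium were seeded in 1536-well plates (500 or 1000 cells/well) and given library compounds in DMSO for 48 h at 37°C. The 11 threefold doses spanned 47 μM to 0.79 nM, and CellTiter-Glo One luminescence was normalised per plate to DMSO and cell-free wells before four-parameter log-logistic fitting on log10 dose. Area under the curve was integrated with the trapezoidal rule, scaling curves above full viability and removing curves that failed quality control.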
# [3] = test system: NOMO1; assay: as above; conditions: 48 h
# How it was run: as §2
# [4] = test system: P12-Ichikawa; assay: as above; conditions: 48 h
# How it was run: as §2
# [5] = test system: P12-Ichikawa; assay: cell viability relative to DMSO control; higher = less cytotoxic; conditions: HPLM + 10% dialyzed FBS, 48 h
# How it was run: as §1
# [6] = HPLM + 10% dialyzed FBS, 0.000781 µM
# [7] = HPLM + 10% dialyzed FBS, 0.00234 µM
# [8] = HPLM + 10% dialyzed FBS, 0.00702 µM
# [9] = HPLM + 10% dialyzed FBS, 0.0211 µM
# [10] = HPLM + 10% dialyzed FBS, 0.0632 µM
# [11] = HPLM + 10% dialyzed FBS, 0.19 µM
# [12] = HPLM + 10% dialyzed FBS, 0.569 µM
# [13] = HPLM + 10% dialyzed FBS, 1.71 µM
# [14] = HPLM + 10% dialyzed FBS, 5.12 µM
# [15] = HPLM + 10% dialyzed FBS, 15.4 µM
# [16] = HPLM + 10% dialyzed FBS, 46.1 µM
# [17] = RPMI 5 mM glucose + 10% dialyzed FBS
smiles,measurement,setting,value
O=C(/C=C/C=C/c1ccc2c(c1)OCO2)N1CCCCC1,cell viability,[1]; [6],129%
same,cell viability,[1]; [7],119%
same,cell viability,[1]; [8],125%
same,cell viability,[1]; [9],127%
same,cell viability,[1]; [10],139%
same,cell viability,[1]; [11],128%
same,cell viability,[1]; [12],116%
same,cell viability,[1]; [13],133%
same,cell viability,[1]; [14],132%
same,cell viability,[1]; [15],119%
same,cell viability,[1]; [16],87.1%
same,cell viability,"[1]; RPMI 5 mM glucose + 10% dialyzed FBS, 0.000781 µM",114%
same,cell viability,"[1]; RPMI 5 mM glucose + 10% dialyzed FBS, 0.00234 µM",129%
same,cell viability,"[1]; RPMI 5 mM glucose + 10% dialyzed FBS, 0.00702 µM",103%
same,cell viability,"[1]; RPMI 5 mM glucose + 10% dialyzed FBS, 0.0211 µM",157%
same,cell viability,"[1]; RPMI 5 mM glucose + 10% dialyzed FBS, 0.0632 µM",146%
same,cell viability,"[1]; RPMI 5 mM glucose + 10% dialyzed FBS, 0.19 µM",129%
same,cell viability,"[1]; RPMI 5 mM glucose + 10% dialyzed FBS, 0.569 µM",150%
same,cell viability,"[1]; RPMI 5 mM glucose + 10% dialyzed FBS, 1.71 µM",131%
same,cell viability,"[1]; RPMI 5 mM glucose + 10% dialyzed FBS, 5.12 µM",167%
same,cell viability,"[1]; RPMI 5 mM glucose + 10% dialyzed FBS, 15.4 µM",140%
same,cell viability,"[1]; RPMI 5 mM glucose + 10% dialyzed FBS, 46.1 µM",108%
same,AUC of viability dose-response curve,[2]; HPLM + 10% dialyzed FBS,466
same,AUC of viability dose-response curve,[2]; RPMI 5 mM glucose + 10% FBS,448
same,AUC of viability dose-response curve,[2]; [17],456
same,AUC of viability dose-response curve,[3]; HPLM + 10% dialyzed FBS,429
same,AUC of viability dose-response curve,[3]; RPMI 5 mM glucose + 10% FBS,444
same,AUC of viability dose-response curve,[3]; [17],448
same,AUC of viability dose-response curve,[4]; HPLM + 10% dialyzed FBS,446
same,AUC of viability dose-response curve,[4]; RPMI 5 mM glucose + 10% FBS,463
same,AUC of viability dose-response curve,[4]; [17],467
Nc1nc(N)nc(-c2cc(Cl)ccc2Cl)n1.O=C(O)/C=C\C(=O)O,AUC of viability dose-response curve,[2]; HPLM + 10% dialyzed FBS,447
same,AUC of viability dose-response curve,[2]; RPMI 5 mM glucose + 10% FBS,432
same,AUC of viability dose-response curve,[2]; [17],459
same,AUC of viability dose-response curve,[3]; HPLM + 10% dialyzed FBS,472
same,AUC of viability dose-response curve,[3]; RPMI 5 mM glucose + 10% FBS,453
same,AUC of viability dose-response curve,[3]; [17],461
same,AUC of viability dose-response curve,[4]; HPLM + 10% dialyzed FBS,447
same,AUC of viability dose-response curve,[4]; RPMI 5 mM glucose + 10% FBS,460
same,AUC of viability dose-response curve,[4]; [17],457
CCOC(=O)C(C)(C)Oc1ccc(Cl)cc1,AUC of viability dose-response curve,[2]; HPLM + 10% dialyzed FBS,465
same,AUC of viability dose-response curve,[2]; RPMI 5 mM glucose + 10% FBS,471
same,AUC of viability dose-response curve,[2]; [17],476
same,AUC of viability dose-response curve,[3]; HPLM + 10% dialyzed FBS,464
same,AUC of viability dose-response curve,[3]; RPMI 5 mM glucose + 10% FBS,453
same,AUC of viability dose-response curve,[3]; [17],453
same,AUC of viability dose-response curve,[4]; HPLM + 10% dialyzed FBS,459
same,AUC of viability dose-response curve,[4]; RPMI 5 mM glucose + 10% FBS,464
same,AUC of viability dose-response curve,[4]; [17],461
CC(=O)C1=C(O)C2(C)C(=CC1=O)Oc1c(C(C)=O)c(O)c(C)c(O)c12 (stereo unspecified),cell viability,[1]; [6],83.1%
same,cell viability,[1]; [7],120%
same,cell viability,[1]; [8],123%
same,cell viability,[1]; [9],123%
same,cell viability,[1]; [10],124%
same,cell viability,[1]; [11],133%
same,cell viability,[1]; [12],118%
same,cell viability,[1]; [13],149%
same,cell viability,[1]; [14],133%
same,cell viability,[1]; [15],149%
same,cell viability,[1]; [16],124%
same,cell viability,"[1]; RPMI 5 mM glucose + 10% FBS, 0.000781 µM",99.1%
same,cell viability,"[1]; RPMI 5 mM glucose + 10% FBS, 0.00234 µM",145%
same,cell viability,"[1]; RPMI 5 mM glucose + 10% FBS, 0.00702 µM",123%
same,cell viability,"[1]; RPMI 5 mM glucose + 10% FBS, 0.0211 µM",129%
same,cell viability,"[1]; RPMI 5 mM glucose + 10% FBS, 0.0632 µM",128%
same,cell viability,"[1]; RPMI 5 mM glucose + 10% FBS, 0.19 µM",152%
same,cell viability,"[1]; RPMI 5 mM glucose + 10% FBS, 0.569 µM",153%
same,cell viability,"[1]; RPMI 5 mM glucose + 10% FBS, 1.71 µM",124%
same,cell viability,"[1]; RPMI 5 mM glucose + 10% FBS, 5.12 µM",136%
same,cell viability,"[1]; RPMI 5 mM glucose + 10% FBS, 15.4 µM",133%
same,cell viability,"[1]; RPMI 5 mM glucose + 10% FBS, 46.1 µM",130%
same,AUC of viability dose-response curve,[2]; HPLM + 10% dialyzed FBS,459
same,AUC of viability dose-response curve,[2]; RPMI 5 mM glucose + 10% FBS,452
same,AUC of viability dose-response curve,[2]; [17],448
same,AUC of viability dose-response curve,[3]; HPLM + 10% dialyzed FBS,328
same,AUC of viability dose-response curve,[3]; RPMI 5 mM glucose + 10% FBS,305
same,AUC of viability dose-response curve,[3]; [17],321
same,AUC of viability dose-response curve,[4]; HPLM + 10% dialyzed FBS,347
same,AUC of viability dose-response curve,[4]; RPMI 5 mM glucose + 10% FBS,342
same,AUC of viability dose-response curve,[4]; [17],375
N[C@@H](Cc1c[nH]c2ccc(O)cc12)C(=O)O,cell viability,[1]; [6],114%
same,cell viability,[1]; [7],110%
same,cell viability,[1]; [8],120%
same,cell viability,[1]; [9],120%
same,cell viability,[1]; [10],94.1%
same,cell viability,[1]; [11],121%
same,cell viability,[1]; [12],105%
same,cell viability,[1]; [13],110%
same,cell viability,[1]; [14],102%
same,cell viability,[1]; [15],85%
same,cell viability,[1]; [16],80.8%
same,AUC of viability dose-response curve,[2]; HPLM + 10% dialyzed FBS,454
same,AUC of viability dose-response curve,[2]; RPMI 5 mM glucose + 10% FBS,401
same,AUC of viability dose-response curve,[2]; [17],398
same,AUC of viability dose-response curve,[3]; HPLM + 10% dialyzed FBS,391
same,AUC of viability dose-response curve,[3]; RPMI 5 mM glucose + 10% FBS,411
same,AUC of viability dose-response curve,[3]; [17],392
same,AUC of viability dose-response curve,[4]; HPLM + 10% dialyzed FBS,462
same,AUC of viability dose-response curve,[4]; RPMI 5 mM glucose + 10% FBS,444
same,AUC of viability dose-response curve,[4]; [17],458
CNNCc1ccc(C(=O)NC(C)C)cc1,cell viability,[1]; [6],102%
same,cell viability,[1]; [7],118%
same,cell viability,[1]; [8],130%
same,cell viability,[1]; [9],117%
same,cell viability,[1]; [10],139%
same,cell viability,[1]; [11],133%
same,cell viability,[1]; [12],107%
same,cell viability,[1]; [13],132%
same,cell viability,[1]; [14],83.7%
same,cell viability,[1]; [15],92.1%
same,cell viability,[1]; [16],40.7%
same,cell viability,[5]; 0.000781 µM,118%
same,cell viability,[5]; 0.00234 µM,123%
same,cell viability,[5]; 0.00702 µM,125%
same,cell viability,[5]; 0.0211 µM,136%
same,cell viability,[5]; 0.0632 µM,124%
same,cell viability,[5]; 0.19 µM,137%
same,cell viability,[5]; 0.569 µM,135%
same,cell viability,[5]; 1.71 µM,144%
same,cell viability,[5]; 5.12 µM,133%
same,cell viability,[5]; 15.4 µM,119%
same,cell viability,[5]; 46.1 µM,99.7%
same,AUC of viability dose-response curve,[2]; HPLM + 10% dialyzed FBS,434
same,AUC of viability dose-response curve,[2]; RPMI 5 mM glucose + 10% FBS,452
same,AUC of viability dose-response curve,[2]; [17],448
same,AUC of viability dose-response curve,[3]; HPLM + 10% dialyzed FBS,465
same,AUC of viability dose-response curve,[3]; RPMI 5 mM glucose + 10% FBS,468
same,AUC of viability dose-response curve,[3]; [17],468
same,AUC of viability dose-response curve,[4]; HPLM + 10% dialyzed FBS,467
same,AUC of viability dose-response curve,[4]; RPMI 5 mM glucose + 10% FBS,464
same,AUC of viability dose-response curve,[4]; [17],466
